This data set is described as follows: Stability study: heat stress storage, UPLC analysis of degradation. It is filed as physicochemical. Here is the method: Samples containing either 1 mM deoxyadenosine triphosphate (dATP), or 1 mM deoxyadenosine tetraphosphate (dA4P) or 1 mM dATP+1 mM dA4P were suspended in a buffer containing 40% DMSO/0.75M KOAc were stored for 18 hours at either 65° C. The samples were then run in a UPLC column and analyzed for degradation of the starting products.

As for `Nc1ncnc2c1ncn2[C@H]1C[C@H](O)[C@@H](COP(=O)(O)OP(=O)(O)OP(=O)(O)O)O1` [dATP, deoxyadenosine triphosphate], the active substrate remaining (buffer, 18 h, 1 mM) is given as 51%.
Regarding deoxyadenosine tetraphosphate [dA4P], the active substrate remaining entry (1 mM in buffer containing 40% DMSO/0.75M KOAc, stored 18 hours at 65° C., UPLC) is “approximately 70%”.
